These are literature values, as cited in article PMC11938273 (Journal of Chemical Information and Modeling, 2025).

*1 amine or outer side, *2 acyl side, *3 side chain or, on linkers, in order; H or OH if unused. Where a SMILES comes first, the peptide text is derived from it. Bridges are numbered along the chain shown (N, C = ends). Roman numbers before positions name the chains, in order. [ ]: non-standard residue; d: D form. Actinocin(9to1) = Cc1c2oc3c(C)ccc(C(=O)[*:1])c3nc-2c(C(=O)[*:2])c(N)c1=O; NMeV = CN[C@H](C(=O)O)C(C)C; Sar = CNCC(=O)O

For the data set the following is noted: in vivo; cited from earlier work.
In the case of `CC(C)CCCCC(=O)N[C@@H](CCN)C(=O)N[C@H](C(=O)N[C@@H](CCN)C(=O)N[C@H]1CCNC(=O)[C@H]([C@@H](C)O)NC(=O)[C@H](CCN)NC(=O)[C@H](CCN)NC(=O)[C@H](CC(C)C)NC(=O)[C@@H](Cc2ccccc2)NC(=O)[C@H](CCN)NC1=O)[C@@H](C)O` (racemic) [Polymyxin B2, rac-N-((R)-4-amino-1-(((2R,3S)-1-(((R)-4-amino-1-oxo-1-(((3R,6R,9R,12R,15S,18R,21R)-6,9,18-tris(2-aminoethyl)-15-benzyl-3-((S)-1-hydroxyethyl)-12-isobutyl-2,5,8,11,14,17,20-heptaoxo-1,4,7,10,13,16,19-heptaazacyclotricosan-21-yl)amino)butan-2-yl)amino)-3-hydroxy-1-oxobutan-2-yl)amino)-1-oxobutan-2-yl)-6-methylheptanamide], the CNS status entry is “Negative”.

Take `C=CCN1CCC[C@H]1CNC(=O)c1cc(CCCF)cc(OC)c1OC` [Fallypride, (S)-N-((1-allylpyrrolidin-2-yl)methyl)-1-(5-(3-fluoropropyl)-2,3-dimethoxyphenyl)ethenamine]: the CNS status entry is “Positive”.

For `C[C@H](N)[C@H](O)c1cccc(O)c1` (racemic) [Metaraminol, rac-3-((1R,2S)-2-amino-1-hydroxypropyl)phenol], the CNS status entry is given as “Negative”.

Take `Cc1ccc([C@H]2C[C@@H]3CC[C@H]([C@H]2C(=O)OCCF)N3C/C=C/I)cc1` [FE-PE2i, 2-fluoroethyl (1R,2S,3S,5S)-8-((E)-3-iodoallyl)-3-(p-tolyl)-8-azabicyclo[3.2.1]octane-2-carboxylate]: the CNS status result was “Positive”.

Turning to `Cc1ccc(C(=O)c2cc(O)c(O)c([N+](=O)[O-])c2)cc1` [Tolcapone, (3,4-dihydroxy-5-nitrophenyl)(p-tolyl)methanone], the CNS status entry is listed as “Negative”.

Turning to `COc1ccc(OC)c(CN(C(C)=O)c2cc(F)ccc2Oc2ccccc2)c1` [DAA1106, N-(2,5-dimethoxybenzyl)-N-(5-fluoro-2-phenoxyphenyl)acetamide], the CNS status entry is given as “Positive”.

Take `CS(=O)(=O)c1ccc(C2=C(c3ccccc3)C(=O)OC2)cc1` [Rofecoxib, 4-[4-(Methylsulfonyl)phenyl]-3-phenyl2(5H)-furanone]: the CNS status entry was “Negative”.

For `O=S(=O)(O)CCS` [Mesna (Coenzyme M), 2-mercaptoethane sulfonic acid], the CNS status entry is reported as “Negative”.

Consider `COC(=O)c1cncn1[C@H](C)c1ccccc1` [Metomidate, (R)-methyl 1-(1-phenylethyl)-1H-imidazole-5-carboxylate], for which the CNS status result is listed as “Positive”.

Turning to Teicoplanin, the CNS status entry is on record as “Negative”.

As to `CN1Cc2c(C(=O)OCCF)ncn2-c2ccc(F)cc2C1=O` [Fluoroethylflumazenil (FFMZ), 2-Fluoroethyl 8-fluoro-5-methyl-6-oxo-5,6-dihydro-4H-benzo [f]imidazo[1,5-a] [1, 4]diazepine-3-carboxylate], the CNS status entry is “Positive”.

In the case of `CCN(CC)C(=O)/C(C#N)=C/c1cc(O)c(O)c([N+](=O)[O-])c1` [Entacapone, (2E)-2-Cyano-3-(3,4-dihydroxy-5-nitrophenyl)-N,N-diethylacrylamide], the CNS status result was “Negative”.

For the compound `CCSC(=O)c1c(CC)nc(-c2ccccc2)c(C(=O)OCC[18F])c1CC` [FE@SUPPY, 5-(2-[18F]fluoroethyl)2,4-diethyl-3-(ethylsulfanylcarbonyl)-6-phenylpyridine-5-carboxylate], the CNS status result is reported as “Negative”.

Consider `CC[C@H]1OC(=O)[C@H](C)[C@@H](O[C@H]2C[C@@](C)(OC)[C@@H](O)[C@H](C)O2)[C@H](C)[C@@H](O[C@@H]2O[C@H](C)C[C@H](N(C)C)[C@H]2O)[C@](C)(OC)C[C@@H](C)C(=O)[C@H](C)[C@@H](O)[C@]1(C)O` (mixture of isomers) [Clarithromycin, rac-(3R,4S,5S,6R,7R,9R,11R,12R,13S,14R)-6-(((2S,3R,4S,6R)-4-(dimethylamino)-3-hydroxy-6-methyltetrahydro-2H-pyran-2-yl)oxy)-14-ethyl-12,13-dihydroxy-4-(((2R,4R,5S,6S)-5-hydroxy-4-methoxy-4,6-dimethyltetrahydro-2H-pyran-2-yl)oxy)-7-methoxy-3,5,7,9,11,13-hexamethyloxacyclotetradecane-2,10-dione], for which the CNS status entry is reported as “Negative”.

For `CCC(C)CCCC(=O)N[C@H](CCN)C(=O)N[C@@H](C(=O)N[C@H](CCN)C(=O)N[C@@H]1CCNC(=O)[C@H]([C@H](C)O)NC(=O)[C@@H](CCN)NC(=O)[C@@H](CCN)NC(=O)[C@@H](CC(C)C)NC(=O)[C@H](CC(C)C)NC(=O)[C@@H](CCN)NC1=O)[C@H](C)O` (mixture of isomers) [Colistin, rac-N-((R)-4-amino-1-(((2R,3S)-1-(((R)-4-amino-1-oxo-1-(((3S,6R,9R,12R,15S,18R,21R)-6,9,18-tris(2-aminoethyl)-3-((S)-1-hydroxyethyl)-12,15-diisobutyl-2,5,8,11,14,17,20-heptaoxo-1,4,7,10,13,16,19-heptaazacyclotricosan-21-yl)amino)butan-2-yl)amino)-3-hydroxy-1-oxobutan-2-yl)amino)-1-oxobutan-2-yl)-5-methylheptanamide], the CNS status result is on record as “Negative”.

On to `O=C(c1ccc(F)cc1)C1CCN(CCn2c(=S)[nH]c3ccccc3c2=O)CC1` [Altanserin, 3-[2-[4-(4-fluorobenzoyl)piperidin-1-yl]ethyl]-2-sulfanylidene-1H-quinazolin-4-one], for which the CNS status result is given as “Positive”.

For `COC(=O)[C@H]1[C@@H](c2ccc(C)cc2)C[C@@H]2CC[C@H]1N2C/C=C/I` [PE2i, (1R,2S,3S,5S)-methyl 8-((E)-3-iodoallyl)-3-(p-tolyl)-8-azabicyclo[3.2.1]octane-2-carboxylate], the CNS status entry was “Positive”.

`CNCC(O)CCN1c2ccccc2N(c2ccccc2)S1(=O)=O` (centres unmarked) [Me@HAPTHI, 4-(2,2-Dioxido-3-phenyl-2,1,3-benzothiadiazol-1(3H)-yl)-1-(methylamino)-2-butanol]: the CNS status entry is on record as “Negative”.

For `COc1cc([C@@H]2c3cc4c(cc3[C@@H](O[C@@H]3O[C@@H]5CO[C@@H](c6cccs6)O[C@H]5[C@H](O)[C@H]3O)[C@H]3COC(=O)[C@H]23)OCO4)cc(OC)c1O` [Teniposide, (5S,5aR,8aR,9R)-9-(4-Hydroxy-3,5-dimethoxyphenyl)-8-oxo-5,5a,6,8,8a,9-hexahydrofuro[3′,4′:6,7]naphtho[2,3-d][1,3]dioxol-5-yl 4,6-O-(2-thienylmethylene)-β-D-glucopyranoside], the CNS status result is reported as “Efflux transporter substrate”.

Consider `CC(C)NCC(O)c1ccc(NS(C)(=O)=O)cc1` (centres unmarked) [Sotalol, N-{4-[1-Hydroxy-2-(isopropylamino)ethyl]phenyl}methanesulfonamide], for which the CNS status result is given as “Negative”.

As for `Cc1c2oc3c(C)ccc(C(=O)N[C@@H]4C(=O)N[C@H](C(C)C)C(=O)N5CCC[C@H]5C(=O)N(C)CC(=O)N(C)[C@@H](C(C)C)C(=O)O[C@@H]4C)c3nc-2c(C(=O)N[C@@H]2C(=O)N[C@H](C(C)C)C(=O)N3CCC[C@H]3C(=O)N(C)CC(=O)N(C)[C@@H](C(C)C)C(=O)O[C@@H]2C)c(N)c1=O` [Actinomycin D] (I: T[dV]P[Sar][NMeV] / II: T[dV]P[Sar][NMeV]; ester I:1-I:C, II:1-II:C; linker I:N-II:N via Actinocin(9to1)), the CNS status entry is recorded as “Efflux transporter substrate”.

In the case of `COC(=O)N1CCN(C(=O)Cc2ccc(Cl)c(Cl)c2)[C@H](CN2CCCC2)C1` [GR89696, (R)-methyl 4-(2-(3,4-dichlorophenyl)acetyl)-3-(pyrrolidin-1-ylmethyl)piperazine-1-carboxylate], the CNS status entry was “Positive”.

As to `C[N+]1(CC2CC2)CC[C@]23c4c5ccc(O)c4O[C@H]2C(=O)CC[C@@]3(O)C1C5` (stereo in doubt) [Methylnaltrexone bromide, (3S,4S,4aS,7aR,12bS)-3-(cyclopropylmethyl)-4a,9-dihydroxy-3-methyl-7-oxo-2,3,4,4a,5,6,7,7a-octahydro-1H-4,12-methanobenzofuro[3,2-e]isoquinolin-3-ium], the CNS status result was “Negative”.

Regarding `CNc1ccc(-c2nc3ccc(O)cc3s2)cc1` [6-meO-BTA-0, 2-(4-(Methylamino)phenyl)benzo[d]thiazol-6-ol], the CNS status result is “Negative”.

Regarding `COC(=O)c1ccccc1-c1c2ccc(=N)cc-2oc2cc(N)ccc12` [Rhodamine 123, 6-Amino-9-[2-(methoxycarbonyl)phenyl]-3H-xanthen-3-iminium], the CNS status entry is given as “Efflux transporter substrate”.

In the case of `CNC(=O)Oc1ccc2c(c1)[C@]1(C)CCN(C)[C@@H]1N2C` [Physostigmine, (3aS,8aR)-1,3a,8-trimethyl-1,2,3,3a,8,8a-hexahydropyrrolo[2,3-b]indol-5-yl methylcarbamate], the CNS status entry was “Positive”.

Turning to `Cc1ccc(-c2cc(C(F)(F)F)nn2-c2ccc(S(N)(=O)=O)cc2)cc1` [Celecoxib, 4-[5-(4-Methylphenyl)-3-(trifluoromethyl)-1H-pyrazol-1-yl]benzenesulfonamide], the CNS status result is given as “Negative”.

`COC(=O)[C@H]1[C@@H](c2ccc(I)cc2)C[C@@H]2CC[C@H]1N2C/C=C/I` [IPCIT, (1R,2S,3S,5S)-methyl 8-((E)-3-iodoallyl)-3-(4-iodophenyl)-8-azabicyclo[3.2.1]octane-2-carboxylate]: the CNS status result is listed as “Positive”.

As to `CC[C@]1(O)C[C@@H]2CN(CCc3c([nH]c4ccccc34)[C@@](C(=O)OC)(c3cc4c(cc3OC)N(C)[C@H]3[C@@](O)(C(=O)OC)[C@H](OC(C)=O)[C@]5(CC)C=CCN6CC[C@]43[C@@H]65)C2)C1` [Vinblastine, Dimethyl (2β,3β,4β,5α,12β,19α)-15-[(5S,9S)-5-ethyl-5-hydroxy-9-(methoxycarbonyl)-1,4,5,6,7,8,9,10-octahydro-2 H-3,7-methanoazacycloundecino [5,4-b]indol-9-yl]-3-hydroxy-16-methoxy-1-methyl-6,7-didehydroaspidospermidine3,4-dicarboxylate], the CNS status entry is given as “Efflux transporter substrate”.
